Measured values reported in patent publication US20250228814A1, “COMBINATION THERAPIES FOR THE TREATMENT OF VIRAL INFECTIONS” (Flagship Pioneering Innovations VI, LLC, priority 2022, published 2025).
Like-named read-outs stand apart in the source and are kept apart here.

Experiments:
SARS-CoV-2 [1] = details: for Cell viability: ginkgetin 0 μM, 72 h, normalized to remdesivir 5 μM alone
SARS-CoV-2 [2] = assay: microbe, parasite or virus in culture
SARS-CoV-2 [3] = assay type: cell-based; details: remdesivir alone, dose-dependent (FIG. 1)
[4] = tested on: SARS-CoV-2 virus [B.1.351]; assay type: in vivo, mice; details: in words
[5] = Severe acute respiratory syndrome coronavirus 2, Vero C1008, 72 h, read-out: Cell viability
[6] = Severe acute respiratory syndrome coronavirus 2, Vero C1008, read-out: host cell viability

For COc1cc(O)c2c(=O)cc(-c3ccc(OC)c(-c4c(O)cc(O)c5c(=O)cc(-c6ccc(O)cc6)oc45)c3)oc2c1 [Ginkgetin], the viability (SARS-CoV-2 [1]; 1.5625-6.25 μM of ginkgetin alone) was 18-24%, the host cell viability (SARS-CoV-2 [1]; ginkgetin (25-50 μM) alone, in words) was “modest improvements in host cell viability” and the viability at 1.563 µM (SARS-CoV-2 [2]; [5]) was 18.4%. The viability at 3.125 µM (SARS-CoV-2 [2]; [5]) was 17.1%, the viability at 6.25 µM (SARS-CoV-2 [2]; [5]) was 24.5% and the viability at 12.5 µM (SARS-CoV-2 [2]; [5]) was 46.5%. The viability at 25 µM (SARS-CoV-2 [2]; [5]) was 42.6%, the viability at 50 µM (SARS-CoV-2 [2]; [5]) was 32.3% and the viability at 100 µM (SARS-CoV-2 [2]; [5]) was 40.4%. It also gave a viability at 100 µM (SARS-CoV-2 [2]; [6]) of no more than 40%.

With CCC(CC)COC(=O)[C@H](C)N[P@](=O)(OC[C@H]1O[C@@](C#N)(c2ccc3c(N)ncnn23)[C@H](O)[C@@H]1O)Oc1ccccc1 [Remdesivir] the “viral titers of SARS-CoV-2” value (SARS-CoV-2 [3]) was “zero”, the “infectious titers in lung” value ([4]; remdesivir 25 mg/kg intraperitoneally daily, day 4 post infection) was “strongest antiviral effect in reducing infectious titer” and the “infectious titers in lung” value ([4]; remdesivir 5, 10 or 25 mg/kg intraperitoneally daily from day 1 post infection, day 4 post infection (FIG. 2)) was “dose-dependent effect on reducing infectious titers”. For the same compound, the Cell viability (SARS-CoV-2 [1]; remdesivir 0.3125 μM) was 22.2%, the Cell viability (SARS-CoV-2 [1]; remdesivir 0.625 μM) was 23.2% and the Cell viability (SARS-CoV-2 [1]; remdesivir 1.25 μM) was 28.1%. For the same compound, the Cell viability (SARS-CoV-2 [1]; remdesivir 2.5 μM) was 37.6%, the “host cell viability of SARS-CoV-2-infected Vero E6 cells” value (SARS-CoV-2 [1]; remdesivir (5 μM) alone, in words) was “dose-dependently improved host cell viability” and the viability at 5 µM (SARS-CoV-2 [2]; [5]) was 100%. The viability at 1.25 µM (SARS-CoV-2 [2]; [6]) was 29% and the viability at 2.5 µM (SARS-CoV-2 [2]; [6]) was 39%.
